Consider 10 molecules from ChEMBL document CHEMBL1212720, “Identification of the toxic trigger in mushroom poisoning” (Nat Chem Biol, 2009).

For series [1], the system named is Mus musculus. The experiment in a line: Induction of rhabdomyolysis in ICR mouse assessed as serum creatine […] level at 70 mg/kg, po after 4 hrs by spectrophotometry (reference value: 240 +/- 34 U/L). The class given is organism-based. Further details: dose 70 mg/kg, route oral. Particulars: in vivo.
In series [2] the test system is Mus musculus. As to the kind of experiment: Toxicity in po dosed ICR mouse assessed as decreased in mobility after 3 hrs. The class given is organism-based. Particulars: in vivo.
A short description of series [3]: Toxicity in po dosed mouse. In kind it is organism-based. Conditions: in vivo.
Another series deals with Corynebacterium. The experiment in a line: Antibacterial activity against Corynebacterium after 18 to 48 hrs by serial dilution method. The class given is functional.
Another series concerns Candida. As to the kind of experiment: Antifungal activity against Candida after 18 to 48 hrs by serial dilution method. The class given is functional.
The test system of another series is Klebsiella. The experiment in a line: Antibacterial activity against Klebsiella after 18 to 48 hrs by serial dilution method. The class given is functional.
A further series has as its system Serratia. The experiment in a line: Antibacterial activity against Serratia after 18 to 48 hrs by serial dilution method. In kind it is functional.
The species entered for series [4] is Homo sapiens. As to the kind of experiment: Cytotoxicity against human neuronal tumor cells at 100 ug/ml by MTT assay. The class given is functional, cell-based.
Series [5] has as its system Mus musculus. The experiment in a line: Toxicity in ip dosed ICR mouse assessed as decreased in mobility after 3 hrs. The class given is organism-based. Particulars: in vivo.
For series [6], the species on record is Homo sapiens. As to the kind of experiment: Cytotoxicity against human astrocytoma cells at 100 ug/ml by MTT assay. In kind it is functional, cell-based. Background: Formazan colour is commonly taken as a measure of viable cells.
A further series deals with Proteus. The experiment in a line: Antibacterial activity against Proteus after 18 to 48 hrs by serial dilution method. The class given is functional.
The subject of a further series is sarcoma. As to the kind of experiment: Cytotoxicity against human synovial sarcoma cells at 100 ug/ml by MTT assay. The class given is functional, cell-based.
In a further series the test system is Salmonella. The experiment in a line: Antibacterial activity against Salmonella after 18 to 48 hrs by serial dilution method. In kind it is functional.
Series [7] is described as follows: Cytotoxicity against mouse hyphalamic cells at 100 ug/ml by MTT assay. The class given is cell-based.
For a further series, the system named is Micrococcus. The experiment in a line: Antibacterial activity against Micrococcus after 18 to 48 hrs by serial dilution method. The class given is functional.
A further series has as its system Bacillus. As to the kind of experiment: Antibacterial activity against Bacillus after 18 to 48 hrs by serial dilution method. In kind it is functional.
Series [8] is described as follows: Antibacterial activity against Cryptococcus after 18 to 48 hrs by serial dilution method. The class given is functional.
The subject of another series is Staphylococcus. The experiment in a line: Antibacterial activity against Staphylococcus after 18 to 48 hrs by serial dilution method. The class given is functional.
A short description of series [9]: Chemical stability of the compound at 20 degC assessed as half life. The class given is physicochemical.
Series [10] in a line: Cytotoxicity against mouse DRG neuron at 100 ug/ml by MTT assay.
For another series, the system named is Saccharomyces. The experiment in a line: Antifungal activity against Saccharomyces after 18 to 48 hrs by serial dilution method. In kind it is functional.
The species entered for series [11] is Mus musculus. The experiment in a line: Cytotoxicity against mouse neuronal tumor cells at 100 ug/ml by MTT assay. The class given is functional, cell-based.
Series [12] relates to Mus musculus. As to the kind of experiment: Induction of rhabdomyolysis in ICR mouse assessed as serum creatine […] level at 5 mg/kg, po after 4 hrs by spectrophotometry (reference value: 240 +/- 34 U/L). Further details: dose 5 mg/kg, route oral. Conditions: in vivo. The class given is organism-based.
The next series relates to Pseudomonas. The experiment in a line: Antibacterial activity against Pseudomonas after 18 to 48 hrs by serial dilution method. In kind it is functional.
The subject of another series is Mycobacterium. As to the kind of experiment: Antibacterial activity against Mycobacterium after 18 to 48 hrs by serial dilution method. The class given is functional.
Another series has as its system Enterococcus. The experiment in a line: Antibacterial activity against Enterococcus after 18 to 48 hrs by serial dilution method. The class given is functional.
For another series, the system named is Escherichia. As to the kind of experiment: Antibacterial activity against Escherichia after 18 to 48 hrs by serial dilution method. In kind it is functional.
The next series has as its system Shigella. The experiment in a line: Antibacterial activity against Shigella after 18 to 48 hrs by serial dilution method. The class given is functional.
The next series relates to Rattus norvegicus. As to the kind of experiment: (§1) Toxicity in po dosed rat. The class given is organism-based. Particulars: in vivo.
A short description of series [13]: as §1. In kind it is organism-based. Particulars: in vivo.

Turning to `Nc1ccc(N)cc1`, the Activity in the series on Mus musculus [1] is given as 397 U/L.

For the molecule `CC1=C(C)C1C(=O)O`, the LD100 in the series with Mus musculus [2] is > 250 mg/kg.

The term LD50 denotes the dose expected to kill half of the subjects tested. Low readings indicate greater toxicity, high ones lower toxicity. `C=C(C)C(=O)O` [METHACRYLIC ACID] registered an LD50 in series [3] of 1600 mg/kg.

As to `CC1=CC1C(=O)O` (centres undefined), in the series on Mus musculus [2], the LD100 is 50 mg/kg.

The term MIC denotes the lowest concentration that inhibits growth of the organism. Read a high MIC as weaker potency. As usually defined, the half-life is the time needed for the level to fall by half in the phase considered. As to `O=C(O)C1C=C1`, the MIC in the series with Corynebacterium, with Candida, in the series with Klebsiella, against Serratia, against Proteus and with Salmonella was > 100 µg/mL in each case. Further, the MIC (with Micrococcus; with Bacillus; in [8]; in the series on Staphylococcus; in the series on Saccharomyces; in the series on Pseudomonas) was > 100 µg/mL in each case. The MIC in the series with Mycobacterium, against Enterococcus, in the series with Escherichia and in the series with Shigella was > 100 µg/mL throughout. Also, the Activity entry in the series filed under Homo sapiens [4] is “Not toxic”; in the series listed under Homo sapiens [6] it was “Not toxic”; in the series on sarcoma, “Not toxic”; in [7], “Non-toxic”; in series [10], “Non-toxic”; in the series filed under Mus musculus [11], “Not toxic”. In the series on Mus musculus [12], the Activity was 3441 U/L. Besides, the LD100 in the series on Mus musculus [5] and in the series on Mus musculus [2] was 2.5 mg/kg in each case. Moreover, the half-life in [9] is 20 h.

`CCCC(=O)O` [BUTYRIC ACID] had an LDLO in the series on Rattus norvegicus of 500 mg/kg. The same molecule had an LD50 in series [13] of 8790 mg/kg. In the series with Mus musculus [2], the LD100 was 5000 mg/kg.

Turning to `CC(=O)O` [ACETIC ACID], the LD100 with Mus musculus [2] came out at 2500 mg/kg. This molecule yielded an LD50 in series [3] of 4960 mg/kg.

For the molecule `C/C=C/C(=O)O` [CROTONIC ACID], the LD100 in the series on Mus musculus [2] came to 2500 mg/kg. The LD50 in series [3] was 400 mg/kg.

In series [3], `C#CC(=O)O` [PROPIOLIC ACID] returned an LD50 of 100 mg/kg.

On to `CCC(=O)O` [PROPIONIC ACID], for which, in series [3], the 50% lethal dose (LD50) stood at 5100 mg/kg.
